From patent US20240376097A1, “BCL-2 Inhibitor” (BeiGene Ltd., priority 2020, published 2024)
Like-named read-outs stand apart in the source and are kept apart here.

Experiments:
[1] = target: Recombinant human Bcl-2 protein (Homo sapiens (Human), UniProt P10415); experiment: Bcl-2 TR-FRET Assay; format: binding
Summary of the method: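 Displacement of FITC-labelled Bak peptide (0.5 nM) from 0.05 nM human Bcl-2, detected by TR-FRET with Tb-cryptate anti-6His antibody after 1 h at room temperature. Compounds, 10-point series, preincubated 0.5 h with protein in 20 mM potassium phosphate pH 7.5, 50 mM NaCl. IC50s fitted by four-parameter logistic.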

[2] = target: recombinant human Bcl-2 D103Y protein (Homo sapiens (Human), UniProt P10415, D103Y); experiment: Bcl-2-D103Y Biochemical Assay (TR-FRET); format: binding; details: for IC50: TR-FRET, FITC labeled Bak peptide; for Ratio of Bcl-2 D103Y/Bcl-2 WT: ratio of IC50
Summary of the method: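 Compounds titrated against the Bcl-2 D103Y–ligand interaction; inhibition derived from the TR-FRET emission ratio 490 nm/520 nm after 337 nm excitation. Four-parameter logistic fitting gave IC50.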

[3] = Metabolic Stability Study, liver microsome incubation (human); format: in vitro ADME; details: human liver microsomes 0.5 mg/mL, 1 μM compound, NADPH; for half-life at 1 μM: NA^# = very stable, beyond the detection limits, read-out: T1/2 (min) Human; for microsomal CLint at 1 μM: read-out: CLint (μL × min^−1 × mg^−1) Human
Summary of the method: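 Test compounds (1 μM) incubated at 37° C with 0.5 mg/mL liver microsomes plus NADPH regenerating system; samples quenched at 0, 30 and 60 min. Parent loss measured by LC-MS/MS, giving CLint and T1/2, with CLint normalised to microsomal protein concentration.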

[4] = Bcl-2 wild type, TR-FRET, read-out: Biochemical assay (IC50, nM) Bcl-2 WT
[5] = wild type Bcl-2, unit inferred, read-out: Bcl-2 WT

Sequence of recombinant human Bcl-2 D103Y protein (P10415 whole entry D103Y): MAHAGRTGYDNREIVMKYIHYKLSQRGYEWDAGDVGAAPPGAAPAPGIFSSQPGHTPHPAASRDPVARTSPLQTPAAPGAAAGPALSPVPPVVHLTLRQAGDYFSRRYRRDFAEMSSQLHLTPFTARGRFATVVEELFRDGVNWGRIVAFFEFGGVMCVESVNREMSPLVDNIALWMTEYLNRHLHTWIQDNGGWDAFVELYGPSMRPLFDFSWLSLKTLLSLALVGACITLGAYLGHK
Sequence of Recombinant human Bcl-2 protein (P10415 whole entry): as the sequence (P10415 whole entry D103Y) above, with Y103D counted along it

SMILES | IC50 [1, 4] [nM] | IC50 [1, 5] [nM] | IC50 [2] [nM] | Ratio of Bcl-2 D103Y/Bcl-2 WT [2] | half-life at 1 μM [3] [min] | microsomal CLint at 1 μM [3] [µL/min/mg] | ratio of Bcl-2 D103Y/Bcl-2 wt, compared with F91b in WO2019210828 ([2]; comparison in words)
COc1cc(CN2CCN(C3CC4(C3)CN(c3ccc(C(=O)NS(=O)(=O)c5ccc(NC[C@H]6CC[C@](C)(O)CC6)c([N+](=O)[O-])c5)c(Oc5cnc6[nH]cc(F)c6c5)c3)C4)[C@H](c3ccccc3C(C)C)C2)ccc1C [Example 274, 2-((3-fluoro-1H-pyrrolo[2,3-b]pyridin-5-yl)oxy)-N-((4-((((1r,4r)-4-hydroxy-4-methylcyclohexyl)methyl)amino)-3-nitrophenyl)sulfonyl)-4-(6-((R)-2-(2-isopropylphenyl)-4-(3-methoxy-4-methylbenzyl)piperazin-1-yl)-2-azaspiro[3.3]heptan-2-yl) benzamide] | 0.55 | 0.55 | 0.31 | 0.57 | 344 | 4 | 
CC(C)c1ccccc1C1CN(Cc2ccc(Cl)cc2)CCN1C1CC2(CCN(c3ccc(C(=O)NS(=O)(=O)c4ccc(NC[C@H]5CC[C@](C)(O)CC5)c([N+](=O)[O-])c4)c(Oc4cnc5[nH]ccc5c4)c3)CC2)C1 (some centres unmarked) [Example 29, 2-((1H-pyrrolo[2,3-b]pyridin-5-yl)oxy)-4-(2-(4-(4-chlorobenzyl)-2-(2-isopropylphenyl)piperazin-1-yl)-7-azaspiro[3.5]nonan-7-yl)-N-((4-((((1r,4r)-4-hydroxy-4-methylcyclohexyl)methyl)amino)-3-nitrophenyl)sulfonyl)benzamide] | 0.29 | 0.29 | 0.57 | 1.9 | 245 | 5.6 | 
CC(C)c1ccccc1C1CN(Cc2ccc(F)cc2)CCN1C1CC2(CCN(c3ccc(C(=O)NS(=O)(=O)c4ccc(NC[C@H]5CC[C@](C)(O)CC5)c([N+](=O)[O-])c4)c(Oc4cnc5[nH]ccc5c4)c3)CC2)C1 (some centres unmarked) [Example 28, 2-((1H-pyrrolo[2,3-b]pyridin-5-yl)oxy)-4-(2-(4-(4-fluorobenzyl)-2-(2-isopropylphenyl)piperazin-1-yl)-7-azaspiro[3.5]nonan-7-yl)-N-((4-((((1r,4r)-4-hydroxy-4-methylcyclohexyl)methyl)amino)-3-nitrophenyl)sulfonyl)benzamide] | 0.23 | 0.23 | 0.34 | 1.5 | 135 | 10.3 | 
COc1cc(CN2CCN(C3CC4(C3)CN(c3ccc(C(=O)NS(=O)(=O)c5ccc(NC[C@H]6CC[C@](C)(O)CC6)c([N+](=O)[O-])c5)c(Oc5cnc6[nH]cc(F)c6c5)c3)C4)[C@H](c3ccccc3C(C)C)C2)ccc1OC1CC1 [Example 321, 4-(6-((R)-4-(4-cyclopropoxy-3-methoxybenzyl)-2-(2-isopropylphenyl)piperazin-1-yl)-2-azaspiro[3.3]heptan-2-yl)-2-((3-fluoro-1H-pyrolo[2,3-b]pyridin-5-yl)oxy)-N-((4-((((1r,4r)-4-hydroxy-4-methylcyclohexy)methyl)amino)-3-nitrophenyl)sulfonyl)benzamide] | 0.17 | 0.17 | 0.14 | 0.79 | 1020 | 1.4 | 
COc1ccc(CN2CCN(C3CC4(C3)CN(c3ccc(C(=O)NS(=O)(=O)c5ccc(NC[C@H]6CC[C@](C)(O)CC6)c([N+](=O)[O-])c5)c(Oc5cnc6[nH]cc(F)c6c5)c3)C4)[C@H](c3ccccc3C(C)C)C2)cc1OC [Example 141a, 4-(6-((R)-4-(3,4-dimethoxybenzyl)-2-(2-isopropylphenyl)piperazin-1-yl)-2-azaspiro[3.3]heptan-2-yl)-2-((3-fluoro-1H-pyrrolo[2,3-b]pyridin-5-yl)oxy)-N-((4-((((1r,4r)-4-hydroxy-4-methylcyclohexyl)methyl)amino)-3-nitrophenyl)sulfonyl)benzamide] | 0.054 | 0.054 | 0.072 | 1.3 | 343 | 4 | significantly lower
COc1cc(CN2CCN(C3CC4(C3)CN(c3ccc(C(=O)NS(=O)(=O)c5ccc(NC[C@H]6CC[C@](C)(O)CC6)c([N+](=O)[O-])c5)c(Oc5cnc6[nH]cc(F)c6c5)c3)C4)[C@H](c3ccccc3C(C)C)C2)cc2c1OCCC2 [Example 312, 2-((3-fluoro-1H-pyrrolo[2,3-b]pyridin-5-yl)oxy)-N-((4-((((1r,4r)-4-hydroxy-4-methylcyclohexyl)methyl)amino)-3-nitrophenyl)sulfonyl)-4-(6-((R)-2-(2-isopropylphenyl)-4-((8-methoxychroman-6-yl)methyl)piperazin-1-yl)-2-azaspiro[3.3]heptan-2-yl)benzamide] | 0.094 | 0.08 | 0.081 | 1.0 | 423 | 3.3 | 
COc1cc(CN2CCN(C3CC4(C3)CN(c3ccc(C(=O)NS(=O)(=O)c5ccc(NC[C@H]6CC[C@](C)(O)CC6)c([N+](=O)[O-])c5)c(Oc5cnc6[nH]cc(F)c6c5)c3)C4)[C@H](c3ccccc3C(C)C)C2)ccc1N1CCOCC1 [Example 361, 2-((3-fluoro-1H-pyrrolo[2,3-b]pyridin-5-yl)oxy)-N-((4-((((1r,4r)-4-hydroxy-4-methylcyclohexyl)methyl)amino)-3-nitrophenyl)sulfonyl)-4-(6-((R)-2-(2-isopropylphenyl)-4-(3-methoxy-4-morpholinobenzyl)piperazin-1-yl)-2-azaspiro[3.3]heptan-2-yl) benzamide] | 0.051 | 0.048 | 0.079 | 1.6 |  | < 1 | 
COc1ccc(CN2CCN(C3CC4(C3)CN(c3ccc(C(=O)NS(=O)(=O)c5ccc(NC[C@H]6CC[C@](C)(O)CC6)c([N+](=O)[O-])c5)c(Oc5cnc6[nH]ccc6c5)c3)C4)[C@H](c3ccccc3C(C)C)C2)cc1 [Example 147, 2-((1H-pyrrolo[2,3-b]pyridin-5-yl)oxy)-N-((4-((((1r,4r)-4-hydroxy-4-methylcyclohexyl)methyl)amino)-3-nitrophenyl)sulfonyl)-4-(6-((R)-2-(2-isopropylphenyl)-4-(4-methoxybenzyl)piperazin-1-yl)-2-azaspiro[3.3]heptan-2-yl) benzamide] | 0.054 | 0.054 | 0.086 | 1.6 |  | < 1 | 
CC(C)c1ccccc1C1CN(Cc2ccc(C(F)(F)F)cc2)CCN1C1CC2(CCN(c3ccc(C(=O)NS(=O)(=O)c4ccc(NC[C@H]5CC[C@](C)(O)CC5)c([N+](=O)[O-])c4)c(Oc4cnc5[nH]ccc5c4)c3)CC2)C1 (some centres unmarked) [Example 41, 2-((1H-pyrrolo[2,3-b]pyridin-5-yl)oxy)-N-((4-((((1r,4r)-4-hydroxy-4-methylcyclohexyl)methyl)amino)-3-nitrophenyl)sulfonyl)-4-(2-(2-(2-isopropylphenyl)-4-(4-(trifluoromethyl)benzyl)piperazin-1-yl)-7-azaspiro[3.5]nonan-7-yl) benzamide] | 0.83 | 0.83 | 3.1 | 3.7 | 997 | 1.4 | 
